# Experimental data published in the supplement of paper PMC10307832.
# Assays:
# Assay in all cases: relative viability (nuclei count vs DMSO), 5 days (fraction); higher = more cells survive
# [1] = compound: CC1=C(N=C(N=C1N)[C@H](CC(=O)N)NC[C@@H](C(=O)N)N)C(=O)N[C@@H]([C@H](C2=CN=CN2)OC3C(C(C(C(O3)CO)O)O)OC4C(C(C(C(O4)CO)O)OC(=O)N)O)C(=O)N[C@H](C)[C@H]([C@H](C)C(=O)N[C@@H]([C@@H](C)O)C(=O)NCCC5=NC(=CS5)C6=NC(=CS6)C(=O)NCCC[S+](C)C)O [Bleomycin] + CC1(C)CCC(c2ccc(Cl)cc2)=C(CN2CCN(c3ccc(C(=O)NS(=O)(=O)c4ccc(N[C@H](CCN5CCOCC5)CSc5ccccc5)c(S(=O)(=O)C(F)(F)F)c4)cc3)CC2)C1 [Navitoclax] (partner 0.5 µM); conditions: main component drawn
# How it was run: (§1)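 Relative viability is defined as nuclei in treated wells over nuclei in vehicle wells. Duplicate plates were run and medians reported. Lung cancer cell lines in 1536-well plates were dosed by pin tool one day after seeding, with one drug or with a fixed anchor-drug dose plus five library-drug doses (not always all listed) in √10 steps, and nuclei were counted after 5 days.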
# [2] = compound: CC1=C(N=C(N=C1N)[C@H](CC(=O)N)NC[C@@H](C(=O)N)N)C(=O)N[C@@H]([C@H](C2=CN=CN2)OC3C(C(C(C(O3)CO)O)O)OC4C(C(C(C(O4)CO)O)OC(=O)N)O)C(=O)N[C@H](C)[C@H]([C@H](C)C(=O)N[C@@H]([C@@H](C)O)C(=O)NCCC5=NC(=CS5)C6=NC(=CS6)C(=O)NCCC[S+](C)C)O [Bleomycin] + N=C(N)NC(=N)NCCc1ccccc1 [Phenformin] (partner 250 µM); conditions: main component drawn
# How it was run: as §1
# [3] = compound: COc1cc([C@@H]2c3cc4c(cc3[C@@H](O[C@@H]3O[C@@H]5CO[C@@H](C)O[C@H]5[C@H](O)[C@H]3O)[C@H]3COC(=O)[C@H]23)OCO4)cc(OC)c1O [Etoposide] + CCNC(=O)c1noc(-c2cc(C(C)C)c(O)cc2O)c1-c1ccc(CN2CCOCC2)cc1 [Luminespib] (partner 0.01 µM)
# How it was run: as §1
# [4] = compound: COc1cc([C@@H]2c3cc4c(cc3[C@@H](O[C@@H]3O[C@@H]5CO[C@@H](C)O[C@H]5[C@H](O)[C@H]3O)[C@H]3COC(=O)[C@H]23)OCO4)cc(OC)c1O [Etoposide] + Cc1nc(NC(=O)N2CCC[C@H]2C(N)=O)sc1-c1ccnc(C(C)(C)C(F)(F)F)c1 [Alpelisib] (partner 2 µM)
# How it was run: as §1
Cell Line,relative viability ([1]; first compound 0.01 µM),relative viability ([1]; first compound 0.03162 µM),relative viability ([1]; first compound 0.1 µM),relative viability ([1]; first compound 0.3162 µM),relative viability ([1]; first compound 1 µM),relative viability ([2]; first compound 0.01 µM),relative viability ([2]; first compound 0.03162 µM),relative viability ([2]; first compound 0.1 µM),relative viability ([2]; first compound 0.3162 µM),relative viability ([2]; first compound 1 µM),relative viability ([3]; first compound 0.01 µM),relative viability ([3]; first compound 0.03162 µM),relative viability ([3]; first compound 0.1 µM),relative viability ([3]; first compound 0.3162 µM),relative viability ([3]; first compound 1 µM),relative viability ([4]; first compound 0.01 µM),relative viability ([4]; first compound 0.03162 µM),relative viability ([4]; first compound 0.1 µM),relative viability ([4]; first compound 0.3162 µM),relative viability ([4]; first compound 1 µM)
NCI-H1395,0.829,0.944,0.709,0.535,0.496,0.404,0.411,0.456,0.325,0.351,0.713,0.539,0.607,0.54,0.415,1.02,1.14,0.773,0.798,0.69
NCI-H1437,0.952,1.07,0.978,0.667,0.491,0.248,0.283,0.287,0.229,0.212,1.1,1.07,1.14,0.7,0.509,0.915,0.945,0.883,0.42,0.256
NCI-H1651,0.944,0.82,0.614,0.272,0.136,0.314,0.298,0.303,0.17,0.189,0.815,0.724,0.681,0.308,0.209,0.844,0.833,0.984,0.511,0.24
NCI-H1666,0.761,0.579,0.518,0.362,0.324,0.528,0.516,0.494,0.344,0.302,0.949,0.906,0.77,0.399,0.406,0.929,0.931,0.69,0.315,0.28
NCI-H1734,0.719,0.571,0.518,0.24,0.139,0.327,0.28,0.28,0.177,0.131,0.226,0.192,0.182,0.185,0.168,0.698,0.822,0.509,0.517,0.381
NCI-H1755,0.932,0.933,0.945,0.724,0.394,0.562,0.589,0.593,0.507,0.39,0.481,0.415,0.45,0.483,0.277,0.919,0.907,0.888,0.871,0.639
NCI-H1792,0.541,0.665,0.492,0.302,0.109,0.316,0.309,0.195,0.197,0.164,0.317,0.472,0.205,0.215,0.248,0.61,0.415,0.374,0.549,0.302
NCI-H1793,0.355,0.404,0.298,0.177,0.163,0.389,0.417,0.349,0.211,0.131,0.203,0.184,,0.181,0.169,0.563,0.78,,0.718,0.341
NCI-H1915,0.726,0.78,0.732,0.537,0.212,0.301,0.301,0.254,0.15,0.14,0.714,0.634,0.808,0.617,0.394,0.999,1.17,0.967,0.99,0.631
NCI-H1944,0.762,0.77,0.594,0.423,0.233,0.145,0.144,0.141,0.116,0.102,0.519,0.936,0.597,0.404,0.247,0.742,0.969,0.645,0.564,0.249
NCI-H1975,0.872,0.878,0.584,0.28,0.222,0.322,0.316,0.253,0.162,0.123,0.34,0.199,0.125,0.242,0.199,0.621,0.822,0.693,0.56,0.273
NCI-H1993,0.887,0.765,0.863,0.663,0.584,0.501,0.512,0.478,0.419,0.44,0.827,0.726,0.757,0.73,0.48,0.741,0.719,0.649,0.624,0.533
NCI-H2009,1.16,1.18,1.09,0.858,0.532,0.474,0.512,0.489,0.403,0.383,1.03,0.961,1,0.644,0.476,1.12,1.18,1.19,1.06,0.388
NCI-H2023,0.723,0.72,0.519,0.244,0.148,0.34,0.326,0.312,0.157,0.101,0.709,0.829,0.708,0.195,0.112,0.597,0.615,0.543,0.388,0.138
